Results taken from ChEMBL document CHEMBL5352473, “Design, synthesis, biological evaluation and crystal structure determination of dual modulators of carbonic anhydrases and estrogen receptors” (Eur J Med Chem, 2023).
pKi: −log10 of the molar value. Calls of active or inactive are those of the source. The calls are words filed in the database; no cut-off is given here.

How the values were obtained:
Carbonic anhydrase 9 = Carbonic anhydrase 9 (Homo sapiens, UniProt Q16790)
Description: Binding affinity to human CA9 assessed as inhibition constant incubated for 6 hrs by phenol red dye based stopped flow CO2 hydration assay

Carbonic anhydrase 1 = Carbonic anhydrase 1 (Homo sapiens, UniProt P00915); assay: Binding affinity to human CA1 assessed as inhibition constant incubated for 6 hrs by phenol red dye based stopped flow CO2 hydration assay
[1] = target: Estrogen receptor beta (Homo sapiens) (UniProt Q92731); assay: Partial agonist activity at wild type human ERbeta in HEK-293T cells transfected with 3xERE-driven luciferase reporter plasmid by luciferase reporter gene assay; type: cell-based
Carbonic anhydrase 2 = Carbonic anhydrase 2 (Homo sapiens, UniProt P00918); assay: Binding affinity to human CA2 assessed as inhibition constant incubated for 6 hrs by phenol red dye based stopped flow CO2 hydration assay
Carbonic anhydrase 12 = Carbonic anhydrase 12 (Homo sapiens, UniProt O43570); assay: Binding affinity to human CA12 assessed as inhibition constant incubated for 6 hrs by phenol red dye based stopped flow CO2 hydration assay
Sequence of Carbonic anhydrase 12 (O43570 whole entry): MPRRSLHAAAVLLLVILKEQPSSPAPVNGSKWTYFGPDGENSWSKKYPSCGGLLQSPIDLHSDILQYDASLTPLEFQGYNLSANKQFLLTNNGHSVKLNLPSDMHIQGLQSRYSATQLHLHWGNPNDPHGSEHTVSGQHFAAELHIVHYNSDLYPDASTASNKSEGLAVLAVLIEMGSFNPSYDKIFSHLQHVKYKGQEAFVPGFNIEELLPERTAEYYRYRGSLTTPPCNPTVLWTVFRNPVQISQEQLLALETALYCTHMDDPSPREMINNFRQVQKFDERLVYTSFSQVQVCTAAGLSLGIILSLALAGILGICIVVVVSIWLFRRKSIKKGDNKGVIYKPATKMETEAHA

Sequence of Estrogen receptor beta (Homo sapiens) (Q92731 whole entry): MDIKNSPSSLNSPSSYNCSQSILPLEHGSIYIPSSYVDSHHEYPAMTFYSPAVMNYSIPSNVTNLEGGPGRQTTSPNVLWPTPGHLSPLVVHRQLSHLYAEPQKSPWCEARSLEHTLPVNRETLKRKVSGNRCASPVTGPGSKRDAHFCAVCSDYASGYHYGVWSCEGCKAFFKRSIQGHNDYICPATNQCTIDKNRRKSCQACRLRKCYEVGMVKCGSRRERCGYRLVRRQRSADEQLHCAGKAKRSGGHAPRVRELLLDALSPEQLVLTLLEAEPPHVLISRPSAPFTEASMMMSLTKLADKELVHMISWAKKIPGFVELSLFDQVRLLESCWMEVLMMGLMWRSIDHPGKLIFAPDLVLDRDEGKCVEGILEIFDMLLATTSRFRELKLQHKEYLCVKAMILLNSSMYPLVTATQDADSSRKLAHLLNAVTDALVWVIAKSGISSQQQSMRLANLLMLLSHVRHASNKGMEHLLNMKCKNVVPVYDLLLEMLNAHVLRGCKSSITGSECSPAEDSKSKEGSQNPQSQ
Sequence of Carbonic anhydrase 1 (P00915 whole entry): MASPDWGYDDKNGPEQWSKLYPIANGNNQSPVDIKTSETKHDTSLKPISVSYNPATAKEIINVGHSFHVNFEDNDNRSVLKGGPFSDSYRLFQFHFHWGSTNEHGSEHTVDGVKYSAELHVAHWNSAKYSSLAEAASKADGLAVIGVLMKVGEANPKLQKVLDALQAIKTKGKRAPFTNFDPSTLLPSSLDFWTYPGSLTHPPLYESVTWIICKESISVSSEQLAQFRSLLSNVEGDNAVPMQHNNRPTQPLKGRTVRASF

pKi (Carbonic anhydrase 9): 5.68
pKi (Carbonic anhydrase 1): 7.13
Activity [1]: inactive
pKi (Carbonic anhydrase 2): 8.66
pKi (Carbonic anhydrase 12): 6.59
SMILES: NS(=O)(=O)c1ccc2c(c1)C1C=CCC1C(c1ccccc1Cl)N2 (racemic)
